ChEMBL document CHEMBL2086254, “Synthesis and identification of novel indolo[2,3-a]pyrimido[5,4-c]carbazoles as a new class of anti-cancer agents” (Eur J Med Chem, 2012)
Active and inactive are the calls of the source. The rule behind the calls is not given here.

Legend:
[1] = system: HCC 2998; assay: Cytotoxicity against human HCC2998 cells assessed as cell growth at 10 uM after 48 hrs by SRB assay relative to control; type: functional; settings: HCC 2998, 48 h, read-out: Activity
[2] = molecular target: DNA topoisomerase 2-alpha (Homo sapiens) (UniProt P11388); assay: Inhibition of human DNA topoisomerase 2 at 100 uM after 1 hr by agarose gel circular DNA decatenation assay
[3] = system: 786-0; assay: Cytotoxicity against human 786-0 cells assessed as cell growth at 10 uM after 48 hrs by SRB assay relative to control; type: functional; settings: 786-0, 48 h, read-out: Activity
[4] = system: PC-3; assay: Cytotoxicity against human PC3 cells assessed as cell growth at 10 uM after 48 hrs by SRB assay relative to control; type: functional; settings: PC-3, 48 h, read-out: Activity
[5] = system: MDA-MB-468; assay: Cytotoxicity against human MDA-MB-468 cells assessed as cell growth at 10 uM after 48 hrs by SRB assay relative to control; type: functional; settings: MDA-MB-468, 48 h, read-out: Activity
[6] = system: SNB-75; assay: Cytotoxicity against human SNB75 cells assessed as cell growth at 10 uM after 48 hrs by SRB assay relative to control; type: functional; settings: SNB-75, 48 h, read-out: Activity
[7] = system: NCI-H322M; assay: Cytotoxicity against human NCI-H322M cells assessed as cell growth at 10 uM after 48 hrs by SRB assay relative to control; type: functional; settings: read-out: Activity
[8] = system: SF-539; assay: Cytotoxicity against human SF539 cells assessed as cell growth at 10 uM after 48 hrs by SRB assay relative to control; type: functional; settings: SF-539, 48 h, read-out: Activity
[9] = system: COLO 205; assay: Cytotoxicity against human COLO205 cells assessed as cell growth at 10 uM after 48 hrs by SRB assay relative to control; type: functional; settings: COLO 205, 48 h, read-out: Activity
[10] = system: HT-29; assay: Cytotoxicity against human HT-29 cells assessed as cell growth at 10 uM after 48 hrs by SRB assay relative to control; type: functional; settings: HT-29, 48 h, read-out: Activity
[11] = system: KM12; assay: Cytotoxicity against human KM12 cells assessed as cell growth at 10 uM after 48 hrs by SRB assay relative to control; type: functional; settings: KM12, 48 h, read-out: Activity
[12] = system: NCI-H522; assay: Cytotoxicity against human NCI-H522 cells assessed as cell growth at 10 uM after 48 hrs by SRB assay relative to control; type: functional; settings: NCI-H522, 48 h, read-out: Activity
[13] = system: SK-MEL-5; assay: Cytotoxicity against human SK-MEL-5 cells assessed as cell growth at 10 uM after 48 hrs by SRB assay relative to control; type: functional; settings: SK-MEL-5, 48 h, read-out: Activity
[14] = system: NCI-H460; assay: Cytotoxicity against human NCI-H460 cells assessed as cell growth at 10 uM after 48 hrs by SRB assay relative to control; type: functional; settings: NCI-H460, 48 h, read-out: Activity
[15] = system: HL-60; assay: Cytotoxicity against human HL60 cells assessed as cell growth at 10 uM after 48 hrs by SRB assay relative to control; type: functional; settings: HL-60, 48 h, read-out: Activity
[16] = system: MDA-MB-231; assay: Cytotoxicity against human MDA-MB-231 cells assessed as cell growth at 10 uM after 48 hrs by SRB assay relative to control; type: functional; settings: MDA-MB-231, 48 h, read-out: Activity
[17] = system: MOLT-4; assay: Cytotoxicity against human MOLT4 cells assessed as cell growth at 10 uM after 48 hrs by SRB assay relative to control; type: functional; settings: MOLT-4, 48 h, read-out: Activity
[18] = system: OVCAR-3; assay: Cytotoxicity against human OVCAR3 cells assessed as cell growth at 10 uM after 48 hrs by SRB assay relative to control; type: functional; settings: OVCAR-3, 48 h, read-out: Activity
[19] = system: SR; assay: Cytotoxicity against human SR cells assessed as cell growth at 10 uM after 48 hrs by SRB assay relative to control; type: functional; settings: read-out: Activity
[20] = system: U-251; assay: Cytotoxicity against human U251 cells assessed as cell growth at 10 uM after 48 hrs by SRB assay relative to control; type: functional; settings: U-251, 48 h, read-out: Activity
[21] = system: SN12C; assay: Cytotoxicity against human SN12C cells assessed as cell growth at 10 uM after 48 hrs by SRB assay relative to control; type: functional; settings: read-out: Activity
[22] = system: CCRF-CEM; assay: Cytotoxicity against human CCRF-CEM cells assessed as cell growth at 10 uM after 48 hrs by SRB assay relative to control; type: functional; settings: read-out: Activity
[23] = system: SK-MEL-5; assay: Cytotoxicity against human SK-MEL-5 cells after 48 hrs by SRB assay; type: functional; settings: SK-MEL-5, 48 h
[24] = system: OVCAR-8; assay: Cytotoxicity against human OVCAR8 cells after 48 hrs by SRB assay; type: functional; settings: OVCAR-8, 48 h
[25] = system: MDA-MB-435; assay: Cytotoxicity against human MDA-MB-435 cells after 48 hrs by SRB assay; type: functional; settings: MDA-MB-435, 48 h
[26] = system: OVCAR-5; assay: Cytotoxicity against human OVCAR5 cells after 48 hrs by SRB assay; type: functional; settings: OVCAR-5, 48 h
[27] = system: MDA-MB-468; assay: Cytotoxicity against human MDA-MB-468 cells after 48 hrs by SRB assay; type: functional; settings: MDA-MB-468, 48 h
[28] = system: NCI-H322M; assay: Cytotoxicity against human NCI-H322M cells after 48 hrs by SRB assay; type: functional
[29] = system: SNB-75; assay: Cytotoxicity against human SNB75 cells after 48 hrs by SRB assay; type: functional; settings: SNB-75, 48 h
[30] = system: UACC-257; assay: Cytotoxicity against human UACC257 cells after 48 hrs by SRB assay; type: functional; settings: UACC-257, 48 h
[31] = Cytotoxicity against human breast cancer cell after 48 hrs by SRB assay; type: functional; settings: Cancer cell lines
[32] = system: SNB-19; assay: Cytotoxicity against human SNB19 cells after 48 hrs by SRB assay; type: functional; settings: SNB-19, 48 h
[33] = system: SW-620; assay: Cytotoxicity against human SW620 cells after 48 hrs by SRB assay; type: functional; settings: SW-620, 48 h
[34] = read-out: LC50 (the source's name)

DNA topoisomerase 2-alpha (Homo sapiens), sequence (P11388 whole entry): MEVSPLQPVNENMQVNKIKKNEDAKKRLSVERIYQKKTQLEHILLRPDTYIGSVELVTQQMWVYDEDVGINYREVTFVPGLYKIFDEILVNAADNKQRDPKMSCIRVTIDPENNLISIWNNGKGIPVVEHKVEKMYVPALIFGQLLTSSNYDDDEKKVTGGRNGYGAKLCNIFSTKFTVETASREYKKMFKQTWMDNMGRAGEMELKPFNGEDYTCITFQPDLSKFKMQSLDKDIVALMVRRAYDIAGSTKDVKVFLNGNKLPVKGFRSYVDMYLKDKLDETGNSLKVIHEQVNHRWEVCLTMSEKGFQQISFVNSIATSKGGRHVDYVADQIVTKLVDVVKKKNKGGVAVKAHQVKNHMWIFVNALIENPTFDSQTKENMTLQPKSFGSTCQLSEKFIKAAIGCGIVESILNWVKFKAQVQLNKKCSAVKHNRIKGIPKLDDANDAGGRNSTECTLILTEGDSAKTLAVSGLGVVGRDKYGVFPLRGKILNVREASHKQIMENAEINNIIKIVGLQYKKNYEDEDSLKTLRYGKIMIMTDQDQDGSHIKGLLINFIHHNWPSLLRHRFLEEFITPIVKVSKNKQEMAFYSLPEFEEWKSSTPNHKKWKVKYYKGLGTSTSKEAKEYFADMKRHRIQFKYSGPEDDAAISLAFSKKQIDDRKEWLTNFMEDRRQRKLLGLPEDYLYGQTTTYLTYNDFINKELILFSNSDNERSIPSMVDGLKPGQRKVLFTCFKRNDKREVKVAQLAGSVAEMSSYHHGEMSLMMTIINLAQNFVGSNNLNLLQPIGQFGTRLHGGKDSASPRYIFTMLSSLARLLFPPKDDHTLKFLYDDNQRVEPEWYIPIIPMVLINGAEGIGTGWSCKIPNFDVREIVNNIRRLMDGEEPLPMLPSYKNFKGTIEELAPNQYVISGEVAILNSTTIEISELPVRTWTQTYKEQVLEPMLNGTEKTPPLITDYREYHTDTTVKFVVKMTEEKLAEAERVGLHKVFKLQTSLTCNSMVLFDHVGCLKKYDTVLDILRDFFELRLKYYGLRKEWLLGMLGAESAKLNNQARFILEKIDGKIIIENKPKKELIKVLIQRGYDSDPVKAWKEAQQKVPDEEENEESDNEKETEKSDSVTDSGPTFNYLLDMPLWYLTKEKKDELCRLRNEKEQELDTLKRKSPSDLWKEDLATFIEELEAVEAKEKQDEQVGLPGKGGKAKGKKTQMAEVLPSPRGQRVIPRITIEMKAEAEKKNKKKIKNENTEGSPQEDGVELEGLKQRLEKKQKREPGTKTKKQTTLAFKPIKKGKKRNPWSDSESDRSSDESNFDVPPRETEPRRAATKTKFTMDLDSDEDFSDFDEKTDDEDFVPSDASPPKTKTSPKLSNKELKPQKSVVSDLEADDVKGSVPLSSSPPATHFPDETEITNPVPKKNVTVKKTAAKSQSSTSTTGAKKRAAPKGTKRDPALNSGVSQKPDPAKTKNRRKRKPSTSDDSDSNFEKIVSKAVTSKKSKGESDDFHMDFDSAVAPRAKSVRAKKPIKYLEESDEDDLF

Which results are given for `Cn1cc(-c2nc(N)[nH]c(=O)c2-c2cn(C)c3ccccc23)c2ccccc21`?
growth at 10 µM [1]: 120%; inhibition [2]: inactive; growth at 10 µM [3]: 122%; growth at 10 µM [4]: 89.7%; growth at 10 µM [5]: 106%; growth at 10 µM [6]: 103%; growth at 10 µM [7]: 88.6%; growth at 10 µM [8]: 141%; growth at 10 µM [9]: 104%; growth at 10 µM [10]: 94.3%; growth at 10 µM [11]: 103%; growth at 10 µM [12]: 86.7%; growth at 10 µM [13]: 101%; growth at 10 µM [14]: 90.7%; growth at 10 µM [15]: 103%; growth at 10 µM [16]: 105%; growth at 10 µM [17]: 105%; growth at 10 µM [18]: 109%; growth at 10 µM [19]: 110%; growth at 10 µM [20]: 100%

Which growth at 10 µM [1] does the source give for `Cn1cc(-c2[nH]c(=O)[nH]c(=O)c2-c2cn(C)c3ccccc23)c2ccccc21` here?
The growth at 10 µM was 109%.

And the inhibition [2]?
Its inhibition is “inactive”.

And the growth at 10 µM [3]?
Its growth at 10 µM is 111%.

What about the growth at 10 µM [4] of the same molecule?
Its growth at 10 µM is 86.1%.

And the growth at 10 µM [21]?
Its growth at 10 µM is 110%.

What about the growth at 10 µM [5] of the same molecule?
The growth at 10 µM was 88.5%.

And the growth at 10 µM [6]?
Its growth at 10 µM is 70.2%.

And the growth at 10 µM [7]?
The growth at 10 µM was 105%.

And the growth at 10 µM [8]?
The growth at 10 µM was 111%.

And the growth at 10 µM [9]?
The growth at 10 µM was 96.3%.

And the growth at 10 µM [11]?
The growth at 10 µM was 93.3%.

What about the growth at 10 µM [12] of the same molecule?
The growth at 10 µM was 93.1%.

What about the growth at 10 µM [13] of the same molecule?
Its growth at 10 µM is 101%.

What about the growth at 10 µM [14] of the same molecule?
The growth at 10 µM was 88.2%.

What about the growth at 10 µM [22] of the same molecule?
The growth at 10 µM was 87.6%.

What about the growth at 10 µM [18] of the same molecule?
The growth at 10 µM was 97.3%.

What about the growth at 10 µM [20] of the same molecule?
The growth at 10 µM was 113%.

With `Cn1c2ccccc2c2c3nc(N)[nH]c(=O)c3c3c4ccccc4n(C)c3c21` as the molecule, how does the growth at 10 µM [1] read?
The growth at 10 µM was 60.9%.

What about the GI50 [23] of the same molecule?
The GI50 was 3.25 µM.

What about the TGI [23] of the same molecule?
Its TGI is 13.7 µM.

And the CC50 [23, 34]?
Its CC50 is 37.9 µM.

What about the inhibition [2] of the same molecule?
The inhibition was “inactive”.

And the GI50 [24]?
The GI50 was 3.82 µM.

What about the TGI [24] of the same molecule?
Its TGI is greater than 100 µM.

What about the CC50 [24, 34] of the same molecule?
Its CC50 is greater than 100 µM.

What about the growth at 10 µM [3] of the same molecule?
The growth at 10 µM was 62.3%.

What about the growth at 10 µM [4] of the same molecule?
Its growth at 10 µM is 59.1%.

What about the GI50 [25] of the same molecule?
The GI50 was 3.39 µM.

And the TGI [25]?
The TGI was 22.3 µM.

What about the CC50 [25, 34] of the same molecule?
The CC50 was greater than 100 µM.

What about the growth at 10 µM [21] of the same molecule?
Its growth at 10 µM is 61.4%.

What about the GI50 [26] of the same molecule?
Its GI50 is 52.3 µM.

What about the TGI [26] of the same molecule?
Its TGI is greater than 100 µM.

What about the CC50 [26, 34] of the same molecule?
Its CC50 is greater than 100 µM.

What about the growth at 10 µM [5] of the same molecule?
Its growth at 10 µM is 80.3%.

And the growth at 10 µM [6]?
Its growth at 10 µM is 96.8%.

What about the growth at 10 µM [7] of the same molecule?
Its growth at 10 µM is 32.9%.

What about the GI50 [27] of the same molecule?
Its GI50 is 21.7 µM.

And the TGI [27]?
The TGI was 75.1 µM.

And the CC50 [27, 34]?
The CC50 was greater than 100 µM.

And the growth at 10 µM [8]?
Its growth at 10 µM is 99.1%.

What about the growth at 10 µM [9] of the same molecule?
The growth at 10 µM was 67.9%.

And the growth at 10 µM [10]?
Its growth at 10 µM is 17.6%.

What about the growth at 10 µM [11] of the same molecule?
The growth at 10 µM was 19.9%.

And the GI50 [28]?
The GI50 was 5.3 µM.

What about the TGI [28] of the same molecule?
Its TGI is greater than 100 µM.

And the CC50 [28, 34]?
Its CC50 is greater than 100 µM.

What about the growth at 10 µM [12] of the same molecule?
Its growth at 10 µM is 46.1%.

What about the growth at 10 µM [13] of the same molecule?
Its growth at 10 µM is 48.8%.

What about the GI50 [29] of the same molecule?
The GI50 was 66.6 µM.

And the TGI [29]?
Its TGI is greater than 100 µM.

And the CC50 [29, 34]?
The CC50 was greater than 100 µM.

And the growth at 10 µM [14]?
The growth at 10 µM was 40.6%.

And the growth at 10 µM [22]?
Its growth at 10 µM is 35.2%.

And the GI50 [30]?
Its GI50 is 12.8 µM.

What about the TGI [30] of the same molecule?
Its TGI is 32 µM.

What about the CC50 [30, 34] of the same molecule?
Its CC50 is 79.7 µM.

And the growth at 10 µM [15]?
The growth at 10 µM was 34.3%.

And the GI50 [31]?
The GI50 was 2.13 µM.

What about the TGI [31] of the same molecule?
The TGI was 44.1 µM.

What about the CC50 [31, 34] of the same molecule?
Its CC50 is greater than 100 µM.

What about the growth at 10 µM [16] of the same molecule?
The growth at 10 µM was 103%.

What about the GI50 [32] of the same molecule?
Its GI50 is greater than 100 µM.

And the TGI [32]?
Its TGI is greater than 100 µM.

And the CC50 [32, 34]?
Its CC50 is greater than 100 µM.

What about the growth at 10 µM [17] of the same molecule?
The growth at 10 µM was 53.3%.

What about the growth at 10 µM [18] of the same molecule?
Its growth at 10 µM is 82.9%.

What about the growth at 10 µM [19] of the same molecule?
The growth at 10 µM was 64%.

What about the growth at 10 µM [20] of the same molecule?
Its growth at 10 µM is 76.1%.

And the GI50 [33]?
Its GI50 is 4.05 µM.

And the TGI [33]?
Its TGI is greater than 100 µM.

And the CC50 [33, 34]?
The CC50 was greater than 100 µM.
